From US11035008B2, “Biomarkers for cancer” (BERGENBIO ASA, priority 2015, dated 2021)
“Also recorded” adds a separate entry of the source.

Tests used:
pAxl (Y779) = assay: pAxl(Y779) in AML cell panel, short term treatment, flow cytometry; assay type: cell-based, human; details: 1 hour
Method: Staining of Cells for Flow Cytometry, General Protocol: • Live cells were centrifuged at 300 G for 5 minutes, washed once with PBS and centrifuged again. Cells were then fixed in 4% PFA in PBS for 10 minutes at 37° C., and resuspended in PBS. Unless processed immediately, samples were at this point stored in PBS at 4° C. (up to three weeks) or at −80° C. (for long-term storage). If intracellular epitopes were stained, cells were permebealized in 90% MeOH for 30 minutes on ice. Unless processed immediately, samples were also be stored in 90% MeOH at −20° C. for up to two months. • Further staining procedure (permebealized or non-permebealized cells): • Cells were washed 1× in PBS and blocked in blocking buffer; either PBS+0.5% BSA or PBS+1:1000 Octagam (5 mg/ml) for 15 minutes at room temperature. Thereafter, cells were incubated with primary AB at the indicated dilutions in incubation buffer (IB, PBS+0.5% BSA) for 1 hour at room temperature. Cells were then washed 3× with IB and incubated with secondary AB (conjugated to a fluorescent flurophore) at 1:1000 dilution in IB for 30 minutes at room temperature. Finally, cells were washed 3× in IB and resuspended in PBS. Cells were analyzed immediately, or stored for up to 24 hours at 4° C. before analysis. • Analysis of cells was done on a BD LSR Fortessa or a BD C6 Accuri flow cytometer, and further processing was done using FlowJo v.7.6. • All incubation steps (but not storage) were done on a spinning wheel or gentle shaker.
The diversity of AML cells and their responses was investigated using a panel of AML cell lines and assessing their responses after BGB324-treatment.
When investigating phospho-markers, the cells were starved overnight in the appropriate growth medium containing 0.1% FBS, pre-treated with BGB324 at 0.5 and 1 μM for one hour, and stimulated with 10% FBS for 20 minutes (to induce phosphorylation, with BGB324 present). Cells were then fixed and stained for flow cytometric analyses.

PHGDH [1] = assay: Microarray analysis of xenograft material, PHGDH transcript; assay type: in vivo, mice
From the text: PHGDH was included in the biomarker panel following microarray analysis of Mv4-11 and MOLM13 xenograft material after BGB324-treatment.

PHGDH [2] = assay: PHGDH by western blot in Mv4-11 subcutaneous xenograft tumours; assay type: in vivo, mice; details: for PHGDH in tumour lysates (western blot): Mv4-11 sub-q
Method: Western Blot, General Protocol: • For western blot analysis, cells were lysed on ice using NP-40 lysis buffer with protease- and phosphatase inhibitors. Total protein concentration in lysates was measured using a BCA protein assay kit following the manufacturers instructions. 10% NuPAGE® Bis-Tris precast gels were loaded with 30-50 μg of protein in each well diluted in sample buffer and antioxidant. A 1:1 mix of MagicMark™ XP Western Protein Standard (Invitrogen) and SeeBlue® Plus 2 Pre-Stained Standard was used as protein standard. Gels were run at 50V for 20 min, then at 100V for 1 h 30 min. Blotting was done on ice for 1 h 30 min at 100V onto PVDF (pre-activated with MeOH) or nitrocellulose membranes. Membranes were washed in TBS-0.1% Tween-20 (TBS-T), and blocked in TBS-T 5% BSA for at least 1 h at RT. Primary ABs were added at 1:1000 in TBS-T 5% BSA (rabbit-anti-actin AB was added at 1:2000) in TBS-T 5% BSA, and membranes were incubated over night at 4° C. Membranes were then washed 3× in TBS-T, and incubated in HRP-conjugated secondary ABs at 1:5000 dilution in TBS-T 5% milk for 45 min at RT. Membranes were developed for 1 min using ECL-reagents and imaged with chemiluminescence using a Molecular Imager ChemiDoc™ XRS (BioRad). • All incubation- and washing steps were done on a roller.
To validate the reduction of PHGDH in in vivo samples found by microarray, the PHGDH expression in tumour material from in vivo samples was investigated by western blot. […] Therefore, it was investigated at what time point PHGDH is reduced after treatment with a single high dose of BGB324 100 mg/kg.
Tumours where the mice had been treated with a single lower dose of BGB324, 50 mg/kg, were also examined (tumour material was harvested at different time points, from 4-72 hours).

pPLCγ1 = pPLCγ1 in CD33-positive cells, MOLM13 systemic xenograft model, flow cytometry; assay type: in vivo, mice; details: 50 mg/kg for 4 days
Method: (§1) Material from an in vivo MOLM13 systemic model was also evaluated by flow cytometry. Expression of the previously evaluated biomarkers was examined in cells isolated from bone marrows and spleens of animals with systemic AML disease (MOLM13, inoculated for 7 days prior to treatment) treated with BGB324 at 50 mg/kg for 4 days. The spleens analysed were from the same study that was analysed by microarray, as mentioned above. The bone marrows were from an identical study that was done at a later time point to get more material for flow analyses.
(§2) Cells isolated from spleens and bone marrows were assessed for phosphorylation of Erk, PLCγ1 and Akt, and expression of PHGDH and SLFN11. The samples were also co-stained with CD33, and biomarker expression was only evaluated in CD33-positive cells.

pAkt = pAkt in CD33-positive cells, MOLM13 systemic xenograft model, flow cytometry; assay type: in vivo, mice; details: both tissues (spleens and bone marrows), 50 mg/kg for 4 days; change not significant
Method: as §1, §2

Nc1nc(Nc2ccc3c(c2)CC[C@@H](N2CCCC2)CC3)nn1-c1cc2c(nn1)-c1ccccc1CCC2 [BGB324, 1-(6,7-dihydro-5H-benzo[6,7]cyclohepta[1,2-c]pyridazin-3-yl)-N3-((7-(S)-pyrrolidin-1-yl)-6,7,8,9-tetrahydro-5H-benzo[7]annulene-2-yl)-1H-1,2,4-triazole-3,5-diamine]
pAxl (pAxl (Y779); Kasumi, 0.5 and 1 μM): no response to treatment
phosphorylation of Axl at Y779 (pAxl (Y779); MOLM13, 0.5 and 1 μM): significantly reduced
phosphorylation of Axl at Y779 (pAxl (Y779); Mv4-11, 0.5 and 1 μM): significantly reduced
pAxl (pAxl (Y779); OCI-M1, highest treatment dose): slight (but significant) reduction of pAxl
PHGDH transcript (microarray) (PHGDH [1]; MOLM13 systemic xenograft model, spleen and bone marrow): significantly downregulated; also recorded: significantly reduced
PHGDH transcript (microarray) (PHGDH [1]; Mv4-11 subcutaneous xenograft, 14 days of treatment): one of the most significantly downregulated transcripts; also recorded: significantly downregulated
PHGDH transcript alteration after treatment (microarray) (PHGDH [1]; both Mv4-11 subcutaneous and MOLM13 systemic xenograft models): more than 1.5 fold
PHGDH in tumours (western blot) (PHGDH [2]; Mv4-11, single dose 50 mg/kg, harvested 4-72 hours): stable reduction of PHGDH was observed from 16 hours and onwards
PHGDH in tumours (western blot) (PHGDH [2]; Mv4-11, single dose 100 mg/kg, 6 hours after treatment): not 6 hours after treatment
PHGDH in tumours (western blot) (PHGDH [2]; Mv4-11, single dose 100 mg/kg, 8 hours after treatment): reduction of PHGDH observed in three parallel tumours
PHGDH in tumour lysates (western blot) (PHGDH [2]; 25 mg/kg BID, 50 mg/kg BID or 50 mg/kg QD, 15 days): reduction of PHGDH was observed in most of the tumours
PHGDH in tumour lysates (western blot) (PHGDH [2]; 100 mg/kg single dose, tumours harvested 6 h after dosing): only in one of two tumours
pPLCγ1 (pPLCγ1; bone marrows): significant reduction
pPLCγ1 (pPLCγ1; spleens): significant reduction
pAkt (pAkt): went down
